Where “and” joins values, the source holds several entries; their conditions need not be identical. Equal entries are not always repeated.

Assay [1] in a line: DPPH free radical scavenging (reducing activity of the stable radical DPPH). Conditions: DPPH 50 µM in absolute ethanol; – = did not show any DPPH activity. Type of assay: biochemical. The protocol:
The reducing activity of investigated systems was achieved by the DPPH method according to previously described procedures with modifications to assure the use in a 96-well microplate. Briefly, equal volumes of various concentrations of tested molecules (dissolved in DMSO) were added to the solution of DPPH (final concentration 50 µM in absolute ethanol). Ethanol and DMSO were used as control solutions in line with earlier reports.[27]
For orientation: The DPPH test is a chemical assay of radical scavenging.

Assay [2] relates to HCT116 (colon carcinoma). Nature of the assay: Antiproliferative activity in vitro, MTT, 72 h. Type of assay: cell-based. The conditions noted are these: Homo sapiens, HCT-116, 72 h, concentration that causes 50% growth inhibition. The protocol: (§1) The experiments were performed on four human cell lines, including HCT 116 (colon carcinoma), H 460 (lung carcinoma), MCF-7 (breast carcinoma) and HEK 293 (human embryonic kidney cells), in line with previously published experimental procedures[10]^,[25]. Briefly, the cells were grown in DMEM medium with the addition of 10% foetal bovine serum (FBS), 2 mM L-glutamine, 100 U/mL penicillin and 100 µg/mL streptomycin, and cultured as monolayers at 37 °C in a humidified atmosphere with 5% CO2. Cells were seeded at 2 × 10^3 cells/well in a standard 96-well microtiter plates and left to attach for 24 h. Next day, a test compound was added in five serial 10-fold dilutions. The rate of cell growth was evaluated after 72 h of incubation with MTT reagent. The obtained results are expressed as IC50 values, calculated from the concentration-response curves using linear regression analysis by fitting the test concentrations that give PG values above and below the reference value (i.e. 50%). Each test was performed in quadruplicate in at least two individual experiments.

Assay [3] deals with MCF-7 (breast carcinoma). The assay can be described thus: Antiproliferative activity in vitro, MTT, 72 h. Type of assay: cell-based. The conditions noted are these: Homo sapiens, MCF7, concentration that causes 50% growth inhibition. The protocol:
as §1

A short description of assay [4]: Ferric reducing/antioxidant power (FRAP assay). Type of assay: biochemical. Conditions: triplicate; – = not active in the FRAP assay. The protocol:
The FRAP method was carried out according to previously described procedures with some modifications to be compatible with an assay on a 96-well microplate. All results were expressed as Fe^2+ equivalents (Fe^2+ µmol).

The subject of assay [5] is HEK 293 (human embryonic kidney cells). Nature of the assay: Antiproliferative/cytotoxic activity in vitro on non-tumour cells, MTT, 72 h. Type of assay: cell-based. The conditions noted are these: Homo sapiens, HEK293; non-tumour cell line; concentration that causes 50% growth inhibition; 72 h, MTT. The protocol:
as §1

Assay [6] concerns H 460 (lung carcinoma). Nature of the assay: Antiproliferative activity in vitro, MTT, 72 h. Type of assay: cell-based, human. Conditions: for IC50: Homo sapiens, NCI-H460, 72 h, concentration that causes 50% growth inhibition, 72 h, MTT; for selectivity of antiproliferative activity among cell lines: H 460 versus HCT116, MCF-7, HEK 293. The protocol:
as §1

The IC50 is the concentration needed to halve the response being measured. A lower IC50 goes with inhibition by little substance. Take `COc1cc(C(=O)Nc2nc3ccccc3n2C)cc(OC)c1OC` [Compound 31, 3,4,5-Trimethoxy-N-(1-methyl-1H-benzo[d]imidazol-2-yl)benzamide]: the IC50 in assay [1] turned out to be 6040 ± 290 µM; in assay [2], 18.1 ± 1.4 µM; in assay [3] it was 23.8 ± 12.4 µM; in assay [5] it was 21.7 ± 9.4 µM; in assay [6] it was 17.7 ± 0.8 µM. The molecule also registered an FRAP in assay [4] of 124.28 ± 1.23 mmolFe^2+/mmolC.
Turning to `CC(C)Cn1c(NC(=O)c2ccccc2)nc2ccccc21` [Compound 36, N-(1-Isobutyl-1H-benzo[d]imidazol-2-yl)benzamide], the IC50 in assay [1] worked out at 4510 ± 20 µM; in assay [2], 3.8 ± 0.9 µM; in assay [3], 2.7 ± 1.9 µM; in assay [5] it was 5.9 ± 2.4 µM; in assay [6], 5.1 ± 2.6 µM. Also, in assay [4], the FRAP stood at 179.70 ± 23.42 mmolFe^2+/mmolC.
For the molecule `COc1ccc(C(=O)Nc2nc3ccc(C#N)cc3n2CC(C)C)c(OC)c1` [Compound 42, N-(6-Cyano-1-isobutyl-1H-benzo[d]imidazol-2-yl)-2,4-dimethoxybenzamide], 5350 ± 70 µM corresponded to half-maximal inhibition in assay [1] (IC50).
The molecule `COc1ccc(C(=O)Nc2nc3ccc(C#N)cc3n2-c2ccccc2)c(OC)c1` [Compound 50, N-(6-Cyano-1-phenyl-1H-benzo[d]imidazol-2-yl)-2,4-dimethoxybenzamide] gave an FRAP in assay [4] of 506.70 ± 7.46 mmolFe^2+/mmolC.
As to `COc1ccc(C(=O)Nc2nc3ccccc3[nH]2)c(OC)c1` [Compound 26, N-(1H-Benzo[d]imidazol-2-yl)-2,4-dimethoxybenzamide], in assay [1], the IC50 amounted to 41700 ± 1510 µM. This molecule returned an FRAP in assay [4] of 166.61 ± 9.51 mmolFe^2+/mmolC.
Molecule `COc1ccc(C(=O)Nc2nc3ccccc3n2CC(C)C)c(OC)c1` [Compound 38, N-(1-Isobutyl-1H-benzo[d]imidazol-2-yl)-2,4-dimethoxybenzamide] registered a half-maximal inhibitory concentration (IC50) in assay [1] of 26580 ± 20 µM. In addition, the FRAP in assay [4] was 5.80 ± 0.15 mmolFe^2+/mmolC.
For `COc1ccccc1C(=O)Nc1nc2ccc(C#N)cc2n1-c1ccccc1` [Compound 49, N-(6-Cyano-1-phenyl-1H-benzo[d]imidazol-2-yl)-2-methoxybenzamide] the same measures were 29900 ± 1300 µM and 221.31 ± 27.39 mmolFe^2+/mmolC.
Consider `COc1cc(C(=O)Nc2nc3ccc(C#N)cc3n2C)cc(OC)c1OC` [Compound 35, N-(6-Cyano-1-methyl-1H-benzo[d]imidazol-2-yl)-3,4,5-trimethoxybenzamide], for which the IC50 came out at 5.2 ± 4.2 µM in assay [2], 5.5 ± 3.2 µM in assay [3], 12.3 ± 1.5 µM in assay [5] and 3.9 ± 0.9 µM in assay [6]. Besides, the FRAP in assay [4] amounted to 338.50 ± 21.56 mmolFe^2+/mmolC.
Take `COc1ccccc1C(=O)Nc1nc2ccc(C#N)cc2n1CC(C)C` [Compound 41, N-(6-Cyano-1-isobutyl-1H-benzo[d]imidazol-2-yl)-2-methoxybenzamide]: 4580 ± 150 µM corresponded to half-maximal inhibition in assay [1] (IC50). Also, the FRAP in assay [4] is 154.30 ± 5.67 mmolFe^2+/mmolC.
With `Cc1cc(C(C)(C)C)c(O)c(C(C)(C)C)c1` [BHT, butylated hydroxytoluene, reference compound], the FRAP in assay [4] is on record as 679.15 mmolFe^2+/mmolC.
The same measure, in the same setting: the figure for `Cn1c(NC(=O)c2ccccc2)nc2ccc(C#N)cc21` [Compound 32, N-(6-Cyano-1-methyl-1H-benzo[d]imidazol-2-yl)benzamide] is 160.27 ± 16.35 mmolFe^2+/mmolC.
`COc1cc(C(=O)Nc2nc3ccccc3n2-c2ccccc2)cc(OC)c1OC` [Compound 47, 3,4,5-Trimethoxy-N-(1-pheny-1H-benzo[d]imidazol-2-yl)benzamide]: the IC50 is 1.6 ± 0.9 µM in assay [2], 2.9 ± 1.3 µM in assay [3], 5.3 ± 2.4 µM in assay [5] and 0.8 ± 1.5 µM in assay [6]. The FRAP in assay [4] is reported as 236.90 ± 1.50 mmolFe^2+/mmolC. The “selectivity of antiproliferative activity among cell lines” value in assay [6] was “selective activity against H 460”.
Regarding `COc1cc(C(=O)Nc2nc3ccc(C#N)cc3n2-c2ccccc2)cc(OC)c1OC` [Compound 51, N-(6-Cyano-1-phenyl-1H-benzo[d]imidazol-2-yl)-3,4,5-trimethoxybenzamide], the half-maximal inhibitory concentration (IC50) in assay [2] is 30.1 ± 13.2 µM; in assay [3] it was 29.4 ± 19.4 µM; in assay [5], 61.1 ± 35.7 µM; in assay [6] it was 4.53 ± 7.3 µM. This molecule also showed an FRAP in assay [4] of 132.56 ± 18.06 mmolFe^2+/mmolC. Also, the “selectivity of antiproliferative activity among cell lines” value in assay [6] is listed as “selective activity against H 460”.
Take `COc1ccccc1C(=O)Nc1nc2ccccc2[nH]1` [Compound 25, N-(1H-Benzo[d]imidazol-2-yl)-2-methoxybenzamide]: half-maximal inhibition in assay [1] (IC50) was put at 75700 ± 6080 µM.
In the case of `Cn1c(NC(=O)c2ccccc2)nc2ccccc21` [Compound 28, N-(1-Methyl-1H-benzo[d]imidazol-2-yl)benzamide], the IC50 in assay [1] was ~3780 µM and 3780 µM; in assay [2], 18.7 ± 5.1 µM; in assay [3] it was 11.9 ± 7.5 µM; in assay [5], 29.5 ± 12.5 µM; in assay [6], 10.7 ± 2.3 µM. In addition, the FRAP in assay [4] is 538.81 mmolFe^2+/mmolC and 358.81 ± 4.83 mmolFe^2+/mmolC.
As to `COc1ccccc1C(=O)Nc1nc2ccccc2n1-c1ccccc1` [Compound 45, 2-Methoxy-N-(1-phenyl-1H-benzo[d]imidazol-2-yl)benzamide], in assay [1], the IC50 came to 8710 ± 340 µM.
Take `COc1cc(C(=O)Nc2nc3ccccc3n2CC(C)C)cc(OC)c1OC` [Compound 39, N-(1-Isobutyl-1H-benzo[d]imidazol-2-yl)-3,4,5-trimethoxybenzamide]: the half-maximal inhibitory concentration (IC50) in assay [1] came to 4920 ± 130 µM; in assay [2] it was 3.1 ± 0.7 µM; in assay [3], 4.6 ± 1.4 µM; in assay [5], 2 ± 0.9 µM; in assay [6], 1.7 ± 0.1 µM. In assay [4], this molecule showed an FRAP of 217.20 ± 3.69 mmolFe^2+/mmolC.
`COc1cc([C@@H]2c3cc4c(cc3[C@@H](O[C@@H]3O[C@@H]5CO[C@@H](C)O[C@H]5[C@H](O)[C@H]3O)[C@H]3COC(=O)[C@H]23)OCO4)cc(OC)c1O` [Etoposide, reference compound]: the 50% inhibitory concentration (IC50) in assay [2] was 5 ± 2 µM; in assay [3], 1 ± 0.7 µM; in assay [6] it was 0.1 ± 0.04 µM.
The molecule `COc1ccccc1C(=O)Nc1nc2ccccc2n1C` [Compound 29, 2-Methoxy-N-(1-methyl-1H-benzo[d]imidazol-2-yl)benzamide] displayed an IC50 in assay [1] of 6050 ± 1030 µM. The same molecule registered an FRAP in assay [4] of 110.16 ± 1.44 mmolFe^2+/mmolC.
As to `COc1cc(C(=O)Nc2nc3ccccc3[nH]2)cc(OC)c1OC` [Compound 27, N-(1H-Benzo[d]imidazol-2-yl)-3,4,5-trimethoxybenzamide], the IC50 in assay [1] is 6820 ± 410 µM; in assay [2], 23.1 ± 15 µM; in assay [3] it was 32.8 ± 15.6 µM; in assay [5], 23.6 ± 4.4 µM; in assay [6], 17.6 ± 6.7 µM. Moreover, in assay [4], the FRAP is 5.59 ± 0.62 mmolFe^2+/mmolC.
The molecule `O=C(Nc1nc2ccccc2n1-c1ccccc1)c1ccccc1` [Compound 44, N-(1-Phenyl-1H-benzo[d]imidazol-2-yl)benzamide] showed an FRAP in assay [4] of 184.70 ± 3.22 mmolFe^2+/mmolC.
With `COc1ccc(C(=O)Nc2nc3ccccc3n2-c2ccccc2)c(OC)c1` [Compound 46, 2,4-Dimethoxy-N-(1-phenyl-1H-benzo[d]imidazol-2-yl)benzamide], in assay [1], the concentration for half-maximal inhibition (IC50) stood at 8480 ± 710 µM.
In turn, `COc1ccccc1C(=O)Nc1nc2ccccc2n1CC(C)C` [Compound 37, N-(1-Isobutyl-1H-benzo[d]imidazol-2-yl)-2-methoxybenzamide] had an IC50 in assay [1] of 10550 ± 30 µM.
For `COc1ccc(C(=O)Nc2nc3ccccc3n2C)c(OC)c1` [Compound 30, 2,4-Dimethoxy-N-(1-methyl-1H-benzo[d]imidazol-2-il)benzamide], the IC50 in assay [1] was 49600 ± 18400 µM.
On to `N#Cc1ccc2nc(NC(=O)c3ccccc3)n(-c3ccccc3)c2c1` [Compound 48, N-(6-Cyano-1-phenyl-1H-benzo[d]imidazol-2-yl)benzamide], for which, in assay [4], the FRAP came out at 138.98 ± 32.68 mmolFe^2+/mmolC.
Consider `COc1cc(C(=O)Nc2nc3ccc(C#N)cc3n2CC(C)C)cc(OC)c1OC` [Compound 43, N-(6-Cyano-1-isobutyl-1H-benzo[d]imidazol-2-yl)-3,4,5-trimethoxybenzamide], for which the concentration for half-maximal inhibition (IC50) is approximately 0.6 µM in assay [2], 3.1 ± 1.7 µM in assay [3] and 4.7 ± 1 µM in assay [5]. Moreover, the FRAP in assay [4] amounted to 243.30 ± 3.39 mmolFe^2+/mmolC.

The record behind these values is publication PMC9090388, “Design, synthesis, biological evaluation and QSAR analysis of novel N-substituted benzimidazole derived carboxamides” (Journal of Enzyme Inhibition and Medicinal Chemistry, 2022).
